Results: PubChem BioAssay AID2060601 (Molecular Pharmacology Branch, DTP, NCI, 2025)
Where “and” joins values, the source holds several entries; their conditions need not be identical. Equal values may be shown once. One block for each compound: values may come before it.

Tested on: 874868-142-R-J2-PDC complex spheroids, growth % test/control
Test: Anticancer human tumor 874868-142-R-J2-PDC patient-derived head and neck squamous carcinoma cell line growth inhibition [CLK]
Details: for viability, T/C: stronger effect = lower value
From the text: A high-throughput screen of multi-cell type tumor spheroids was designed to identify active combinations of […] and targeted small molecules. Complex spheroids include a stromal component modeled by human endothelial cells (HUVEC) and fibroblasts modeled by human mesenchymal stem cells (MSCs). The concentration ranges selected for each drug and investigational agent were based upon clinically achievable concentrations if the clinical Cmax of the agent was known.
Compounds. The drugs and investigational agents: cirtuvivint (SM08502; NSC835563), CC-671 (NSC850746), vemurafenib (NSC761431), tapotoclax (NSC804041), sotorasib (NSC818433), adagrasib (NSC831453), MRTX-1133 (NSC836407), BAY2416964 (NSC825713), copanlisib (NSC816437), inavolisib (NSC800729), abemaciclib (NSC768073), osimertinib (NSC779217), entinostat (NSC756642), eltanexor (KPT-8602, NSC794443), venetoclax (NSC766270), ceralasertib (NSC777638), bortezomib (NSC756655), olaparib (NSC753686), talazoparib (NSC767125), alisertib (NSC759677), peposertib (NSC802822), gemcitabine (NSC613327), 5-fluorouracil (NSC19893), SN-38 (NSC673596), oxaliplatin (NSC266046), paclitaxel (NSC125973), and doxorubicin (NSC123127), were obtained from the National Cancer Institute (NCI) Developmental Therapeutics Program Chemical Repository. The FDA-approved anticancer drug set is available from the Developmental Therapeutics Program at https://dtp.cancer.gov/organization/dscb/obtaining/available plates.htm. […] The stock solutions were prepared in dimethyl sulfoxide (DMSO, Sigma-Aldrich, St. Louis, MO, cat. D2650), except for the platinum complexes which were prepared in saline (Quality Biological, Gaithersburg, MD, cat. 114-055-101), at 800-fold the tested concentration and stored at -70 degrees C prior to their use. All drugs and investigational agents were tested over a range starting from a high concentration at or near the clinical Cmax and decreasing in half-log increments. If the clinical Cmax for an agent had not been determined, the highest concentration tested was 10 microM.
Cell Culture. All cells were maintained in an incubator at 37 degrees C and 5% CO2 with 95% humidity. The PDC lines were cultured according to standard operating procedures established by the NCI PDMR. Briefly, all PDCs were thawed and cultured in Matrigel-coated flasks prepared with a working solution of 1X Ham's F-12 nutrient mix, without supplementation (Invitrogen, Waltham, MA, cat. 11765054), 100 U/mL penicillin-streptomycin (Invitrogen, cat. 15140122), and 2.5% Matrigel (Corning Inc., Corning, NY, cat. 354248) for the first three passages. The 947758-054-R-J2-PDC line was cultured in 6B/Colon 1A media, which includes advanced DMEM/F-12 (Thermo Fisher Scientific, cat. 12634028), 10 mM HEPES (Thermo Fisher Scientific, cat. 15630080), 1X GlutaMAX supplement (Thermo Fisher Scientific, cat. 35050061), 0.1 mg/mL primocin (InvivoGen, cat. ant-pm-2), 10% defined fetal bovine serum, heat inactivated (HyClone Laboratories Inc., cat. SH30070.03HI), 1.25 mM N-Acetyl-L-cysteine (Sigma-Aldrich, cat. A9165), 10 mM nicotinamide (Sigma-Aldrich, cat. N0636), 1X B-27 supplement (Thermo Fisher Scientific, cat. 17504044), 1X N-2 supplement (Thermo Fisher Scientific, cat. 17502048), and 10 microM Y-27632 dihydrochloride (Tocris Bioscience, cat. 1254). The 876862-298-R-J1-PDC was cultured in 6E media, which includes all 6B/Colon 1A media components plus 50% L-WRN conditioned media (ATCC, cat. CRL-3276), 50 ng/mL recombinant human EGF recombinant protein (hEGF; Thermo Fisher Scientific, cat. PHG0311), 10 ng/mL recombinant human fibroblast growth factor 10 (hGFG-10; PeproTech, cat. 100-26), 1 ng/mL recombinant human fibroblast growth factor 2 (hFGF-2; PeproTech, cat. 100-18B), and 1 µM prostaglandin E2 (PGE2; Tocris, cat. 2296). The 227483-062-R1-J1-PDC line was cultured in Panc media, containing all 6E components except hFGF-2, with the addition of 500 nM SB-431542 (Selleckchem, cat. S1067) and 10 nM gastrin (Tocris, cat. 3006). […]

[1] = curve of first compound, second compound 0.0316 µM
[2] = curve of first compound, second compound 0.1 µM
[3] = curve of first compound, second compound 0.316 µM
[4] = curve of first compound, second compound 1 µM
[5] = curve of first compound, second compound 3.16 µM
[6] = curve of first compound, second compound 10 µM
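Note: spheroids exposed to the compounds for 7 days.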

IC50 [1]: 35.9 nM | IC50 [2]: 22.2 nM | IC50 [3]: 4.75 nM | IC50 [4]: < 0.949 nM | IC50 [5]: < 0.949 nM | IC50 [6]: < 0.949 nM
Compound: C=CC(=O)Nc1cc(Nc2nccc(-c3cn(C)c4ccccc34)n2)c(OC)cc1N(C)CCN(C)C + CNC(=O)c1ccc(Nc2nc(OC3CCCC3)c3c(-c4ccc5nc(C)oc5c4)c[nH]c3n2)c(OC)c1
viability, T/C (second compound 0.0316 µM, first compound 0.000949 µM): 101% | viability, T/C (second compound 0.0316 µM, first compound 0.003 µM): 115% | viability, T/C (second compound 0.0316 µM, first compound 0.00949 µM): 77.4% | viability, T/C (second compound 0.0316 µM, first compound 0.03 µM): 51.3% | viability, T/C (second compound 0.0316 µM, first compound 0.0949 µM): 45.7% | viability, T/C (second compound 0.0316 µM, first compound 0.3 µM): 23.9% | viability, T/C (second compound 0.1 µM, first compound 0.000949 µM): 103% | viability, T/C (second compound 0.1 µM, first compound 0.003 µM): 75% | viability, T/C (second compound 0.1 µM, first compound 0.00949 µM): 57.5% | viability, T/C (second compound 0.1 µM, first compound 0.03 µM): 52.4% | viability, T/C (second compound 0.1 µM, first compound 0.0949 µM): 30.6% | viability, T/C (second compound 0.1 µM, first compound 0.3 µM): 19.8% | viability, T/C (second compound 0.316 µM, first compound 0.000949 µM): 64.4% | viability, T/C (second compound 0.316 µM, first compound 0.003 µM): 48.9% | viability, T/C (second compound 0.316 µM, first compound 0.00949 µM): 48% | viability, T/C (second compound 0.316 µM, first compound 0.03 µM): 38.5% | viability, T/C (second compound 0.316 µM, first compound 0.0949 µM): 24.8% | viability, T/C (second compound 0.316 µM, first compound 0.3 µM): 24.3% | viability, T/C (second compound 1 µM, first compound 0.000949 µM): 48.9% | viability, T/C (second compound 1 µM, first compound 0.003 µM): 40.5% | viability, T/C (second compound 1 µM, first compound 0.00949 µM): 38.6% | viability, T/C (second compound 1 µM, first compound 0.03 µM): 32.5% | viability, T/C (second compound 1 µM, first compound 0.0949 µM): 26.4% | viability, T/C (second compound 1 µM, first compound 0.3 µM): 14.4% | viability, T/C (second compound 3.16 µM, first compound 0.000949 µM): 43.4% | viability, T/C (second compound 3.16 µM, first compound 0.003 µM): 39.6% | viability, T/C (second compound 3.16 µM, first compound 0.00949 µM): 38% | viability, T/C (second compound 3.16 µM, first compound 0.03 µM): 31.5% | viability, T/C (second compound 3.16 µM, first compound 0.0949 µM): 25.5% | viability, T/C (second compound 3.16 µM, first compound 0.3 µM): 20% | viability, T/C (second compound 10 µM, first compound 0.000949 µM): 41.8% | viability, T/C (second compound 10 µM, first compound 0.003 µM): 37.7% | viability, T/C (second compound 10 µM, first compound 0.00949 µM): 32.7% | viability, T/C (second compound 10 µM, first compound 0.03 µM): 32.3% | viability, T/C (second compound 10 µM, first compound 0.0949 µM): 28% | viability, T/C (second compound 10 µM, first compound 0.3 µM): 18.3%

Compound: CC1(C)CCC(CN2CCN(c3ccc(C(=O)NS(=O)(=O)c4ccc(NCC5CCOCC5)c([N+](=O)[O-])c4)c(Oc4cnc5[nH]ccc5c4)c3)CC2)=C(c2ccc(Cl)cc2)C1 + CN1CCN(c2cc(C(=O)Nc3cc4cc(-c5cnn(C)c5)ccc4cn3)ccn2)CC1
IC50 [1]: > 10000 nM | IC50 [2]: > 10000 nM | IC50 [3]: < 31.6 nM | IC50 [4]: < 31.6 nM | IC50 [5]: < 31.6 nM | IC50 [6]: < 31.6 nM | viability, T/C (second compound 0.0316 µM, first compound 0.0316 µM): 72.6% | viability, T/C (second compound 0.0316 µM, first compound 0.1 µM): 90.4% | viability, T/C (second compound 0.0316 µM, first compound 0.316 µM): 69.6% | viability, T/C (second compound 0.0316 µM, first compound 1 µM): 96.1% | viability, T/C (second compound 0.0316 µM, first compound 3.16 µM): 76.6% | viability, T/C (second compound 0.0316 µM, first compound 10 µM): 70% | viability, T/C (second compound 0.1 µM, first compound 0.0316 µM): 77.6% | viability, T/C (second compound 0.1 µM, first compound 0.1 µM): 69.9% | viability, T/C (second compound 0.1 µM, first compound 0.316 µM): 67.1% | viability, T/C (second compound 0.1 µM, first compound 1 µM): 75.9% | viability, T/C (second compound 0.1 µM, first compound 3.16 µM): 47.2% | viability, T/C (second compound 0.1 µM, first compound 10 µM): 58.9% | viability, T/C (second compound 0.316 µM, first compound 0.0316 µM): 20.8% | viability, T/C (second compound 0.316 µM, first compound 0.1 µM): 17.6% | viability, T/C (second compound 0.316 µM, first compound 0.316 µM): 17% | viability, T/C (second compound 0.316 µM, first compound 1 µM): 18.8% | viability, T/C (second compound 0.316 µM, first compound 3.16 µM): 12.8% | viability, T/C (second compound 0.316 µM, first compound 10 µM): 11.3% | viability, T/C (second compound 1 µM, first compound 0.0316 µM): 0.46% | viability, T/C (second compound 1 µM, first compound 0.1 µM): 4.39% | viability, T/C (second compound 1 µM, first compound 0.316 µM): 0.38% | viability, T/C (second compound 1 µM, first compound 1 µM): 0.29% | viability, T/C (second compound 1 µM, first compound 3.16 µM): 0.25% | viability, T/C (second compound 1 µM, first compound 10 µM): 0.25% | viability, T/C (second compound 3.16 µM, first compound 0.0316 µM): 0.23% | viability, T/C (second compound 3.16 µM, first compound 0.1 µM): 0.22% | viability, T/C (second compound 3.16 µM, first compound 0.316 µM): 0.22% | viability, T/C (second compound 3.16 µM, first compound 1 µM): 0.13% | viability, T/C (second compound 3.16 µM, first compound 3.16 µM): 0.22% | viability, T/C (second compound 3.16 µM, first compound 10 µM): 0.19% | viability, T/C (second compound 10 µM, first compound 0.0316 µM): 0.13% | viability, T/C (second compound 10 µM, first compound 0.1 µM): 3.51% | viability, T/C (second compound 10 µM, first compound 0.316 µM): 1.25% | viability, T/C (second compound 10 µM, first compound 1 µM): 0.25% | viability, T/C (second compound 10 µM, first compound 3.16 µM): 0.17% | viability, T/C (second compound 10 µM, first compound 10 µM): 1.58%

IC50 (curve of compound): > 10000 nM and 8720 nM
Compound: CC1(C)CCC(CN2CCN(c3ccc(C(=O)NS(=O)(=O)c4ccc(NCC5CCOCC5)c([N+](=O)[O-])c4)c(Oc4cnc5[nH]ccc5c4)c3)CC2)=C(c2ccc(Cl)cc2)C1
viability, T/C (compound 0.0316 µM): 79.2% and 90.1% | viability, T/C (compound 0.1 µM): 104% and 95.1% | viability, T/C (compound 0.316 µM): 97.9% and 100% | viability, T/C (compound 1 µM): 101% and 91.3% | viability, T/C (compound 3.16 µM): 93% and 97.6% | viability, T/C (compound 10 µM): 84.1% and 44%
